Key:
[1] = test system: COS-1 cells; assay: Quantitation of chromatin condensation levels (S.D. value of PI intensity per pixel) in COS-1 cells; assay type: cell-based, monkey
Procedure: COS-1, HeLa cells (Japanese Collection of Research Bioresources, Osaka), MCF-7 (provided by H. Saya), A431 (provided by M. N. Fukuda), HEK293 (provided by […]), HCT116 (provided by T. Tomonaga), and SYF ([37]; provided by M. Okada and S. Nada) cells were cultured in Iscove's modified DME containing 5% fetal bovine serum (FBS). Cells were transiently transfected with 0.5 μg of plasmid vector using Trans IT Transfection reagent (Mirus) or with 1 μg of plasmid vector using linear polyethylenimine (25 kDa) (Polyscience, Inc.). For growth factor stimulation, COS-1 cells were starved under low serum conditions (0.05% FBS) for 24 h and restimulated with serum (5% FBS). For stimulation of endogenous SFKs, cells were treated with 3 mM Na3VO4 for 3 h, and SFK-mediated tyrosine phosphorylation was verified by treatment with 10 μM PP2 (SFK inhibitor; Calbiochem) or 100 nM wortmannin (PI3K inhibitor; Alomone Labs) for 21 h before Na3VO4 treatment. Na3VO4 was dissolved at 500 mM in 500 mM unbuffered HEPES before use. For preparation of stable transfectant clones, SYF cells transfected with c-Src-wt or Lyn-wt were selected in 333 μg/mL Zeocin (Invitrogen), and COS-1 cells were transfected with the BOSH2BGFP-N1 vector, which encodes GFP-tagged histone H2B ([39,40]; provided by H. Saya), were selected in 3 μg/mL blasticidin. Confocal and Nomarski differential-interference-contrast images were obtained using a Fluoview FV500 confocal laser scanning microscope with a 40×1.00 NA oil and a 100×1.35 NA oil immersion objective (Olympus, Tokyo) and an LSM 510 confocal laser scanning microscope with a 63×1.40 NA oil immersion objective (Zeiss), as described. One planar (xy) section slice (0.6-μm thickness) is shown in all experiments. In brief, cells were fixed with 4% paraformaldehyde for 20 min, and permeabilized in phosphate-buffered saline (PBS) containing 0.1% saponin and 3% bovine serum albumin at room temperature. Cells were subsequently reacted with an appropriate primary antibody for 1 h, washed with PBS containing 0.1% saponin, stained with FITC- or TRITC-conjugated secondary antibody for 1 h. […] To ensure no bleed-through from the fluorescein signal into the red channel, fluorescein and rhodamine were independently excited at 488 nm and 543 nm, respectively. PI was excited at 488 or 543 nm. Emission signals were detected between 505 and 525 nm for fluorescein, at more than 560 nm for rhodamine and more than 610 nm for PI [44]. Composite figures were prepared using Photoshop 5.0 and Illustrator 9.0 software (Adobe). For nuclear staining with anti-pTyr, anti-ATF-2 […]/71, and anti-histone H3K4me3 antibodies, cells were in situ extracted with 0.5% Triton X-100 at 4° C. for 3 min before fixation with 4% paraformaldehyde. For HP1α staining, cells were fixed in 100% methanol at -20° C. for 10 min followed by permeabilization for 30 min in PBS containing 0.1% Triton X-100 at room temperature. Cells were reacted with anti-HP1α antibody for 1 h at room temperature, washed with PBS four times, and stained with secondary antibody for 1 h. Fluorescence intensity plots of anti-histone H3K4me3, anti-ATF-2 […]/71 and anti-HP1α antibody and PI staining (see FIGS. 18B, 19B, and 20B, respectively) were generated using Fluoview version 4.3 software (Olympus, Tokyo). For detection of the kinase activity of nuclear SFKs, purified nuclei suspended in kinase buffer (50 mM HEPES-NaOH, pH7.4, 5 mM MgCl2, 5 mM MnCl2 and 0.1 mM Na3VO4) were preincubated with or without 10 μM PP2 at 30° C. for 30 min, and subsequently incubated with 5 or 10 μM ATP at 30° C. for 30 min, followed by cytocentrifugation at 200×g for 5 min and fixation with 4% paraformaldehyde. DNA was stained with 20 μg/mL PI and 200 μg/mL RNase A for 30 min. Mean fluorescence intensity of tyrosine-phosphorylated proteins in the nucleus was measured using the ImageJ software (National Institutes of Health). Confocal images of PI-stained nuclei were obtained as described above. […]

[2] = test system: COS-1 cells; assay: Cell cycle analysis: DNA content by flow cytometry in COS-1 cells; assay type: cell-based, monkey; settings: H2O2 at 1, 10 and 20 mM for 1 h, FIGS. 11A-11D
Procedure: To obtain S- and G2-phase cells, COS-1 cells grown in Iscove's modified DME containing 5% FBS were blocked at S phase by exposure to 3 mM thymidine for 18 h. Cells were washed free of thymidine with PBS, and cultured for further 2 or 5 h. Cells were detached by trypsinization, fixed in 1.5% paraformaldehyde at 4° C. for 1 h, and then permeabilized with 70% ethanol at −30° C. for more than 1 h. Fixed cells were washed twice with PBS containing 3% FBS, and treated with 200 μg/ml RNase A and 50 μg/ml PI at 37° C. for 30 min to stain DNA. Cell cycle phase was analyzed by flow cytometry using a MoFlo cell sorter equipped with a 488-nm argon laser (Beckman Coulter). Cells transfected with Lyn-HA or NLS-Lyn-HA were cultured for 36 h, fixed and permeabilized as described above. Fixed cells were washed with PBS containing 3% FBS, stained with anti-HA antibody for 1 h, washed with PBS and stained with FITC-conjugated secondary antibody for 1 h. After DNA staining with PI as described above, cell cycle phase was analyzed in cells expressing Lyn-HA or NLS-Lyn-HA.

| Compound | basal levels of chromatin condensation ([1]; cells not specified, U0126 concentration not given, data not shown) | level of DNA condensation (S.D. value) ([1]; COS-1, H2O2 at 1, 10 and 20 mM for 1 h, FIG. 12) | apoptotic SubG1 cells (histograms of DNA content) [2] |
| --- | --- | --- | --- |
| N#CC(=C(/N)Sc1ccccc1N)/C(C#N)=C(\N)Sc1ccccc1N [U0126] | slightly decreased |  |  |
| OO [H2O2, hydrogen peroxide] |  | corresponded to the degree of apoptosis | induction of apoptotic SubG1 cells in a dose-dependent manner |

Source: patent US10072304B2, “Nuclear localization of Src-family tyrosine kinases is required for growth factor-induced euchromatinization” (National University Corporation Chiba University, priority 2009, dated 2018)
